Results as given in PubChem BioAssay (NCI).
Several values for one entry are separate records, joined by “and”; a condition that tells them apart may be missing. Equal entries are not always repeated.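 A five-concentration, 48-hour dose response in 96-well plates underlies each endpoint, interpolated linearly between surrounding concentrations. Abbreviation: GI50, concentration required for 50% inhibition of growth. Definition used: TGI = concentration required for complete inhibition of growth.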

Assays:
Experiment in all cases: NCI tumour cell line growth inhibition, 48 h
OVCAR-5 ovarian = tested on: OVCAR-5 ovarian
MDA-MB-435 = tested on: MDA-MB-435
LOX IMVI melanoma = tested on: LOX IMVI melanoma
UO-31 renal = tested on: UO-31 renal
CCRF-CEM leukemia = tested on: CCRF-CEM leukemia
RXF 393 renal = tested on: RXF 393 renal
MDA-MB-231 breast = tested on: MDA-MB-231 breast
ACHN renal = tested on: ACHN renal
PC-3 prostate = tested on: PC-3 prostate
HOP-92 NSCLC = tested on: HOP-92 NSCLC

SMILES | TGI (OVCAR-5 ovarian) | TGI (MDA-MB-435) | TGI (LOX IMVI melanoma) | TGI (UO-31 renal) | TGI (CCRF-CEM leukemia) | TGI (RXF 393 renal) | TGI (MDA-MB-231 breast) | TGI (ACHN renal) | TGI (PC-3 prostate) | TGI (HOP-92 NSCLC) | GI50 (OVCAR-5 ovarian) | GI50 (MDA-MB-435) | GI50 (LOX IMVI melanoma) | GI50 (UO-31 renal) | GI50 (CCRF-CEM leukemia) | GI50 (RXF 393 renal) | GI50 (MDA-MB-231 breast) | GI50 (ACHN renal) | GI50 (PC-3 prostate) | GI50 (HOP-92 NSCLC)
FC(F)(F)c1ccc(Cc2nc3cc4ccccc4cc3[nH]2)cc1 | > 100 µM | > 100 µM | > 100 µM | > 100 µM | > 100 µM | > 100 µM | > 100 µM | > 100 µM | > 100 µM | 47.8 µM | – | – | – | – | – | – | – | – | – | –
CCCCNc1nc2ccccc2c2c1ncn2CC(C)C | > 100 µM | > 100 µM | > 100 µM | > 100 µM | > 100 µM | > 100 µM | > 100 µM | > 100 µM | > 100 µM | > 100 µM | – | – | – | – | – | – | – | – | – | –
CCc1c(CN)c(CC)c(CNC2=NCCN2)c(CC)c1CNC1=NCCN1 | > 100 µM | > 100 µM | – | > 100 µM | > 100 µM | > 100 µM | – | > 100 µM | > 100 µM | > 100 µM | – | – | – | – | – | – | – | – | – | –
O=c1[nH]nc(Cc2ccc(Cl)cc2)n1/N=C/c1ccco1 | > 100 µM | > 100 µM | – | > 100 µM | > 100 µM | 91.7 µM | > 100 µM | > 100 µM | > 100 µM | > 100 µM | – | – | – | – | – | – | – | – | – | –
CC(C)(C)c1cc(-c2cc(C(C)(C)C)[nH]n2)n[nH]1 | > 100 µM | > 100 µM | > 100 µM | > 100 µM | > 100 µM | > 100 µM | > 100 µM | > 100 µM | > 100 µM | > 100 µM | – | – | – | – | – | – | – | – | – | –
COc1ccc(CC2C3=C(CCN2C(=O)C2CCC2)CC2(CC3)OCCO2)cc1O (stereo unspecified) | > 100 µM | 20 µM | > 100 µM | 1.49 µM | > 100 µM | 37.5 µM | > 100 µM | > 100 µM | > 100 µM | > 100 µM | – | – | – | – | – | – | – | – | – | –
c1cnn(C23C4C5C6C4C2C6C53)c1 (stereo unspecified) | > 100 µM | > 100 µM | > 100 µM | – | > 100 µM | – | > 100 µM | > 100 µM | > 100 µM | – | – | – | – | – | – | – | – | – | – | –
Cc1sc2[nH]c(=O)oc(=O)c2c1C | > 100 µM | > 100 µM | > 100 µM | > 83.3 µM | > 100 µM | > 100 µM | > 100 µM | > 100 µM | > 100 µM | > 100 µM | – | – | – | – | – | – | – | – | – | –
O=[N+]([O-])c1ccc2nc(Cl)n[n+]([O-])c2c1 | 31.3 µM | 26.9 µM | 5.23 µM | 30.7 µM | 2.8 µM | 28.7 µM | 28.3 µM | 27.2 µM | 28.4 µM | 19.6 µM | – | – | – | – | – | – | – | – | – | –
COc1cc([C@@H]2c3cc4c(c(O)c3C[C@H]3COC(=O)[C@@H]32)OCO4)cc(OC)c1OC | 150 µM and > 241 µM and > 100 µM | 0.000802 µM | – | 56.2 µM and 120 µM and > 100 µM | 94.3 µM and > 241 µM and > 100 µM | – | > 100 µM | 121 µM and > 100 µM | > 241 µM | – | 0.725 µM | 0.000192 µM | 0.334 µM | 0.466 µM | 0.374 µM | 0.281 µM | 0.392 µM | 1.43 µM | 0.0428 µM and 0.161 µM | 8.17 µM
CC1(C)CC(=O)C(/C=N/C(N)=S)=C(O)C1 | > 100 µM | > 100 µM | > 100 µM | > 100 µM | > 100 µM | > 100 µM | > 100 µM | > 100 µM | > 100 µM | > 100 µM | – | – | – | – | – | – | – | – | – | –
COC(=O)[C@H](Cc1ccccc1)NC(=O)/C(=C/C(C)C)NC(=O)[C@H](CCSC)NC=O | – | – | > 100 µM | > 100 µM | > 100 µM | > 100 µM | – | > 100 µM | – | > 100 µM | – | – | – | – | – | – | – | – | – | –
Nc1ccccc1Nc1ccccc1C(=O)[O-].Nc1ccccc1Nc1ccccc1C(=O)[O-].[Zn+2] | > 100 µM | – | – | > 100 µM | > 100 µM | – | – | > 100 µM | – | – | – | – | – | – | – | – | – | – | – | –
O=C(Cn1cc(-c2ccccc2)nn1)NC1CCCCC1 | > 100 µM | > 100 µM | > 100 µM | – | > 100 µM | – | > 100 µM | > 100 µM | > 100 µM | > 100 µM | – | – | – | – | – | – | – | – | – | –
COc1cc(/C=C2/SC(c3ccccc3)N(Cc3ccccc3)C2=O)cc(OC)c1OC (stereo unspecified) | > 100 µM | > 100 µM | > 100 µM | > 100 µM | – | 72.3 µM | > 100 µM | > 100 µM | – | > 100 µM | – | – | – | – | – | – | – | – | – | –
NC1=NC2=c3ccccc3=C(c3cnccn3)C2(c2cnccn2)c2ccccc21 (stereo unspecified) | > 100 µM | – | > 100 µM | > 100 µM | > 100 µM | > 100 µM | – | > 100 µM | – | > 100 µM | – | – | – | – | – | – | – | – | – | –
O=C1NC(=S)N/C1=C\c1cc2c(=O)c3ccccc3sc2s1 | > 100 µM | > 100 µM | > 100 µM | > 100 µM | – | > 100 µM | > 100 µM | > 100 µM | > 100 µM | – | – | – | – | – | – | – | – | – | – | –
C[Si](C)(C)C#Cc1cc(-c2nc3ccccc3s2)ccc1N | 33.5 µM | 34.1 µM | 34 µM | 26.4 µM | 59.4 µM | 32.8 µM | 38 µM | 29.1 µM | 34.2 µM | 27.8 µM | – | – | – | – | – | – | – | – | – | –
CC(=O)OC1CC2CCN3C(=O)c4cc5c(cc4[C@H](C1OC(C)=O)C23)OCO5 (stereo partly specified) | – | – | > 100 µM | > 100 µM | > 100 µM | > 100 µM | – | > 100 µM | – | – | – | – | – | – | – | – | – | – | – | –
O=C(NC(Cl)(C(F)(F)F)C(F)(F)F)c1ccc(F)cc1 | > 100 µM | > 100 µM | > 100 µM | > 100 µM | > 100 µM | > 100 µM | > 100 µM | > 100 µM | > 100 µM | > 100 µM | – | – | – | – | – | – | – | – | – | –
CCN1CCCC(C#N)(c2ccccc2)CC1 (stereo unspecified) | > 100 µM | – | – | > 100 µM | – | > 100 µM | – | > 100 µM | > 100 µM | > 100 µM | – | – | – | – | – | – | – | – | – | –
O=C(O)CSCc1cc2c(O)c(c1)Cc1cc(CSCC(=O)O)cc(c1O)Cc1cc(CSCC(=O)O)cc(c1O)Cc1cc(CSCC(=O)O)cc(c1O)C2 | > 100 µM | > 100 µM | > 100 µM | > 100 µM | > 100 µM | > 100 µM | – | > 100 µM | > 100 µM | > 100 µM | – | – | – | – | – | – | – | – | – | –
O=Cc1c2n(c3ccccc13)N[C@@](Cc1ccc(O)cc1)(C(=O)O)C2 | > 100 µM | > 100 µM | > 100 µM | > 100 µM | > 100 µM | – | > 100 µM | > 100 µM | > 100 µM | > 100 µM | – | – | – | – | – | – | – | – | – | –
